One series has as its system androgen receptor (AR). The following applies: DHT 100 nM, 24 h. As to the method: The human colon adenocarcinoma cell line LS174T was purchased from the American Type Culture Collection (ATCC). […] Cells were cultured in Dulbecco’s modified Eagle’s medium supplemented with 10% fetal bovine serum, 4 mM L-glutamine, 1% nonessential amino acids and antibiotics, and 100 U/mL Penicillin-Streptomycin. […] PAZ-PPARg (derived from the human bladder carcinoma cell line T24/83) was cultivated in Dulbecco’s modified Eagle’s medium supplemented with 10% charcoal-stripped fetal bovine serum, 4 mM L-glutamine and antibiotics, and 100 U/mL Penicillin-Streptomycin. Cells were maintained in 75 cm^2 plastic tissue culture flasks and subcultured twice a week.

For series [1], the target named is T1, AHR (Homo sapiens, UniProt P35869).
T1 sequence (P35869 11-848): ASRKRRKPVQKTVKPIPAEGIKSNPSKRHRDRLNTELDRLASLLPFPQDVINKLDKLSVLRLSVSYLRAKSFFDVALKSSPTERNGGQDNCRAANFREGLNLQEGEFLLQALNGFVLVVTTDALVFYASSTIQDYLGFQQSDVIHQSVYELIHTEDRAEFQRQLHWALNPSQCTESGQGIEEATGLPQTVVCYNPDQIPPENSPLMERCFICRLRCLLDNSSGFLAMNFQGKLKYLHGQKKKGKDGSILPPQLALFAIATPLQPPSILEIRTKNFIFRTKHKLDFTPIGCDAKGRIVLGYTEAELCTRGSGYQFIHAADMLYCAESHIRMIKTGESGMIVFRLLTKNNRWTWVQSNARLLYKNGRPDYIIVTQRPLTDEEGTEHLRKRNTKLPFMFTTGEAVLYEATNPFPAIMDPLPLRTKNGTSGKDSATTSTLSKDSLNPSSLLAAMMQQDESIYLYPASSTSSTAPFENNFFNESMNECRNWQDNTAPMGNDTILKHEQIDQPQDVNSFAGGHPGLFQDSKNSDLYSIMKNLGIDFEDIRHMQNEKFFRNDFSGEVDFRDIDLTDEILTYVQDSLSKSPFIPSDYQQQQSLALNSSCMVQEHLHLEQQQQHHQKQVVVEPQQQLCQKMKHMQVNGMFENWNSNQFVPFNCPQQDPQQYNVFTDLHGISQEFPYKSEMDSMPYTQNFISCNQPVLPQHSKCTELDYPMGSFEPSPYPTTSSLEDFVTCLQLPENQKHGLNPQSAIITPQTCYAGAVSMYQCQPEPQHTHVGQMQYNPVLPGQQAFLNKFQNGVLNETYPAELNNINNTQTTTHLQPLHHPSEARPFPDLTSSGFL
Nature of the series: High-throughput AHR reporter gene assay in AZ-AHR cells.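 Note: luciferase activity measured in lysed AZ-AHR reporter cells after 4 h compound exposure, with 0.1% DMSO as vehicle control and 5 nM TCDD as reference agonist.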 A general note: A reporter such as luciferase makes a cellular process visible.
Protocol: (§2) After 24 h of incubation, the cells were treated with the reference (5 nM TCDD) and tested compounds using a contact-free acoustic liquid handler ECHO 550 (Labcyte, San Jose, CA, USA). […] The cells were incubated with the tested compounds for 4 h. Thereafter, the cells were washed with PBS by Washer EL406 (BioTek, Winooski, VT, USA) and lysed by 1x gene reporter lysis buffer (E3971, Promega). After adding the substrate (D-Luciferin, L9504, Sigma) with a dispenser Multidrop Combi (ThermoFisher Scientific), the luciferase activity was measured on a multimode plate reader EnVision (PerkinElmer). The experiments were performed in technical duplicates and three biological replicates at least.

The test system of series [2] is AHR. On the set-up: method as in PMID 32283770. The following applies: reporter hepatic cell line, 24 h of incubation; cited from earlier work.
Series [3] concerns the target T1, AHR. Description: AHR luciferase reporter assay in LS174T-AHR-luc cells. More on the design: endogenous in cells. It is filed as cell-based. To be noted: IND 274 µM (highest applied concentration), 4 h, TCDD 20 nM. From the text:
(§1) The human colon adenocarcinoma cell line LS174T was purchased from the American Type Culture Collection (ATCC). The following stably transfected reporter gene cell lines were used to estimate specific receptor activation: AZ-AHR (derived from the human hepatocellular carcinoma cell line HepG2), LS174T-AHR-luc (harboring the reporter plasmid pGL-4.27-DRE and prepared by the same protocol as AZ-AHR, AZ-GR (derived from the human cervix carcinoma cell line HeLa)), and IZ-VDRE (derived from the human colon adenocarcinoma cell line LS180). Cells were cultured in Dulbecco’s modified Eagle’s medium supplemented with 10% fetal bovine serum, 4 mM L-glutamine, 1% nonessential amino acids and antibiotics, and 100 U/mL Penicillin-Streptomycin. AIZ-AR (derived from the human prostate carcinoma cell line 22RV1) was cultivated in RPMI-1640 medium supplemented with 10% charcoal-stripped fetal bovine serum, 4 mM L-glutamine, and antibiotics 100 U/mL Penicillin-Streptomycin. PAZ-PPARg (derived from the human bladder carcinoma cell line T24/83) was cultivated in Dulbecco’s modified Eagle’s medium supplemented with 10% charcoal-stripped fetal bovine serum, 4 mM L-glutamine and antibiotics, and 100 U/mL Penicillin-Streptomycin. Cells were maintained in 75 cm^2 plastic tissue culture flasks and subcultured twice a week.

For series [4], the target named is T1, AHR. On the set-up: AZ-AHR (derived from the human hepatocellular carcinoma cell line HepG2); endogenous in cells; host or cells: AZ-AHR (HepG2 stably transfected with a reporter); method as in PMID 26235394. The following applies: 4 h of incubation, human hepatic HepG2 (40/6) reporter cells; cited from earlier work.
In another series the test system is AZ-AHR cells. Description: Cell viability assays (MTT, neutral red, LDH) in AZ-AHR cells. It is filed as cell-based, human. The following applies: 24 h, 2.5 and 5 mM. The protocol: The highest concentrations of the tested compounds were adjusted based on their solubility. […] The MTT (3-(4,5,-dimethylthiazol-2-yl)-2,5-diphenyltetrazolium bromide) colorimetric assay was performed as previously described. The neutral red assay and LDH (Abcam, Cambridge, UK) assays were performed according to the manufacturer’s protocol. Assays were measured spectrophotometrically using a Tecan Infinite M200 plate reader (Tecan, Männedorf, Switzerland).

Series [5] has as its target T1, AHR.
Protocol: as §2
The next series addresses T2, vitamin D receptor (VDR) (Homo sapiens, UniProt P11473).
T2 construct: IZ-VDRE (derived from the human colon adenocarcinoma cell line LS180); endogenous in cells; host or cells: IZ-VDRE (LS180 stably transfected reporter line)
T2 sequence (P11473 1-427): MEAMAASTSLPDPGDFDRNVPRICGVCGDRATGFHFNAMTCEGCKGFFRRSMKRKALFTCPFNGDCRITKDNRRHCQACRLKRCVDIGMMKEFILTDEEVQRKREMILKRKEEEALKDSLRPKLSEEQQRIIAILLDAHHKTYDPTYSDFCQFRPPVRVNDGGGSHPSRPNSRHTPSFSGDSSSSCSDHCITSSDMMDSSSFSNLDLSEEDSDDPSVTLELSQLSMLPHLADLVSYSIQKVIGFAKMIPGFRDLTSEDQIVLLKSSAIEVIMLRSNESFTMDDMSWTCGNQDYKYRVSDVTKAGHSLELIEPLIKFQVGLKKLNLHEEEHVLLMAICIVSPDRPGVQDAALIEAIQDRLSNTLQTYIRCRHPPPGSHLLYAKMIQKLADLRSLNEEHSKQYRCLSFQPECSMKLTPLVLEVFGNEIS
Nature of the series: Nuclear receptor counter-screen, luciferase reporter assay IZ-VDRE cells. To be noted: VD3 75 nM, 24 h. It is filed as cell-based. (Counterscreens check selectivity or assay interference.)

The target of series [6] is glucocorticoid receptor (GR) (Homo sapiens, UniProt P04150). Description: cell-based.
From the text: as §1

The target of series [7] is T3, peroxisome proliferator-activated receptor gamma (PPARγ) (Homo sapiens, UniProt P37231).
T3 construct: PAZ-PPARg (derived from the human bladder carcinoma cell line T24/83); endogenous in cells; host or cells: PAZ-PPARg (T24/83 stably transfected reporter line)
T3 sequence (P37231 1-505): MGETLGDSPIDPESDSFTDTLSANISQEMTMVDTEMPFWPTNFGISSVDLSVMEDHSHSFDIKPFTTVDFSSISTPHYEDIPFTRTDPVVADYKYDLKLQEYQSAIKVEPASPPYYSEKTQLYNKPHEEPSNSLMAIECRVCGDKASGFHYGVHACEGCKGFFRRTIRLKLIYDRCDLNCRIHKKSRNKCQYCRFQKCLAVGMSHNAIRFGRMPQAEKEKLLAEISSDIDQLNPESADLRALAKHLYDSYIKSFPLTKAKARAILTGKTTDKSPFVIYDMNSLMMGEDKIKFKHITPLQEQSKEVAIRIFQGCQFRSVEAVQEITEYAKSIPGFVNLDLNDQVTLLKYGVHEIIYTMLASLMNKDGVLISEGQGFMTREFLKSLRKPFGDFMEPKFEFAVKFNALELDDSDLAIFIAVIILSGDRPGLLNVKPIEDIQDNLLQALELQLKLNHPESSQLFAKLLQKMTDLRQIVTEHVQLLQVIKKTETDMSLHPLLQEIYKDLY
Nature of the series: Nuclear receptor counter-screen, luciferase reporter assay PAZ-PPARg cells. The format is cell-based. To be noted: 15d-PGDJ 40 µM, 24 h.
Protocol: (§3) The following stably transfected reporter gene cell lines were used to estimate specific receptor activation: AZ-AHR (derived from the human hepatocellular carcinoma cell line HepG2) [41], LS174T-AHR-luc (harboring the reporter plasmid pGL-4.27-DRE and prepared by the same protocol as AZ-AHR, AZ-GR (derived from the human cervix carcinoma cell line HeLa)) [42], and IZ-VDRE (derived from the human colon adenocarcinoma cell line LS180) [43]. Cells were cultured in Dulbecco’s modified Eagle’s medium supplemented with 10% fetal bovine serum, 4 mM L-glutamine, 1% nonessential amino acids and antibiotics, and 100 U/mL Penicillin-Streptomycin. […]
(§4) The reporter cells were seeded into 96-well plates at a density of 2.5 × 10^4 (AZ-AHR, LS174T-AHR-luc, IZ-VDRE), 5 × 10^4 (AIZ-AR), 2.2 × 10^4 (AZ-GR), or 4 × 10^4 (PAZ-PPARg) cells in 0.2 mL of culture medium. […] After treatment, cells were lysed in a lysis buffer and the luciferase activity was measured in a 96-well plate format using the Nano-Glo Luciferase AssaySystem for the PAZ-PPARg and IZ-VDRE cell lines and the Luciferase AssaySystem for the AZ-AHR, LS174T-AHR-luc, AIZ-AR, and AZ-GR cell lines on a Tecan Infinite M200 Pro Plate Reader (Tecan, Männedorf, Switzerland).

The mark [8] stands for this setting: AZ-AHR cells, 4 h, luciferase activity by MICT in highest concentration / by 5 nM TCDD.

Like-named read-outs stand apart in the source and are kept apart here. Bounds are passed on as bounds.

glucocorticoid receptor (GR), sequence (P04150 whole entry): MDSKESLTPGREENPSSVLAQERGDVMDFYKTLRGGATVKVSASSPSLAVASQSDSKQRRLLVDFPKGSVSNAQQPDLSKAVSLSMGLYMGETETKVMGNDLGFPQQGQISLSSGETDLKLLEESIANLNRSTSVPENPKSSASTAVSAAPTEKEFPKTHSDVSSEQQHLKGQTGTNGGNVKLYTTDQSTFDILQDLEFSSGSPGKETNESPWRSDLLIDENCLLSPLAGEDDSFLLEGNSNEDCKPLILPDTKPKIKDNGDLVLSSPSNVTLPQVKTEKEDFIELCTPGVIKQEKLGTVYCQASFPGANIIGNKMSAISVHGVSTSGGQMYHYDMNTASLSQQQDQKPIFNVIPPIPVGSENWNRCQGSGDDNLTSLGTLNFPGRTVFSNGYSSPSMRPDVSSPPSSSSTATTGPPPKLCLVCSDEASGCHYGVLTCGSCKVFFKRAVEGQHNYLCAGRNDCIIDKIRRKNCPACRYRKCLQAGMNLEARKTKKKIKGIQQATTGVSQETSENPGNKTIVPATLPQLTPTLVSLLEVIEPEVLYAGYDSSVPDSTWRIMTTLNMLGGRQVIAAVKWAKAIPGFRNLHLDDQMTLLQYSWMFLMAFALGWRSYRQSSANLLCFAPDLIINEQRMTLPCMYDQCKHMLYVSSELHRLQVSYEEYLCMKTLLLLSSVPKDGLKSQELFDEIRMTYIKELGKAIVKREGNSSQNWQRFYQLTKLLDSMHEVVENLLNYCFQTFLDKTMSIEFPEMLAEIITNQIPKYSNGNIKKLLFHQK
Protocol for vitamin D receptor (VDR): as §3, §4

Consider `C[C@]12CCC(=O)C[C@@H]1CC[C@@H]1[C@@H]2CC[C@]2(C)[C@@H](O)CC[C@@H]12` [DHT, 5α-dihydrotestosterone], for which the fold induction in the series on androgen receptor (AR) is 20 fold.

As to `Clc1cc2c(cc1Cl)Oc1cc(Cl)c(Cl)cc1O2` [TCDD, 2,3,7,8-tetrachlorodibenzo-p-dioxin, reference compound], on AHR [1] (read-out: fold induction of luciferase activity, AZ-AHR cells, 4 h, TCDD 5 nM, over control cells), the fold induction at 0.005 µM is approximately 200.

Take `O=C(O)C(O)Cc1c[nH]c2ccccc12` (centres unmarked) [ILA, indole-3-lactate]: the “AHR agonist efficacy class” value in the series with AHR [2] is recorded as “no or low efficacy”.

Broadly, the EC50 is the concentration that produces a half-maximal response. `NC(=O)Cc1c[nH]c2ccccc12` [IAD, indole-3-acetamide] yielded an EC50 at AHR [1] of 4.5 µM. Also, on AHR [1] (AZ-AHR cells, 4 h), the “efficacy class of AHR agonist based on magnitude of luciferase induction” value (“efficacy class of AHR agonist based” below) was “high”. The “relative efficacy, % of maximal induction to TCDD” value (“relative efficacy, %” for short) at AHR [1] (setting [8]) turned out to be 84%. Besides, the “AHR agonist efficacy class” value in the series with AHR [2] is on record as “high-efficacy”.

As to `c1ccc2[nH]ccc2c1` [IND, Indole], the “AHR activation compared with TCDD” value at AHR [3] is reported as “stronger than TCDD”. Moreover, the EC50 on AHR [4] is approximately 3 µM. In addition, on AHR [1], the response was half-maximal at 37.6 ± 14.4 µM (EC50), the “efficacy class of AHR agonist based” value is “high” and the “indole concentrations under which AHR was saturated” value is reported as more than 20 µM. Also, in the series with AHR [2], the “AHR agonist efficacy class” value is reported as “high-efficacy” and the EC50 was approximately 1500 µM. In addition, the “toxicity at very high concentrations” value in the series on AZ-AHR cells is given as “toxic”.

Turning to `O=C(O)/C=C/c1c[nH]c2ccccc12` [IAC, indole-3-acrylate], the “efficacy class of AHR agonist based” value on AHR [1] (AZ-AHR cells, 4 h) is “high”. Moreover, the “relative efficacy, %” value on AHR [1] (setting [8]) stood at 68%. The “AHR agonist efficacy class” value with AHR [2] is listed as “medium efficacy”. Also, it took 8.4 µM to reach a half-maximal effect on AHR [5] (EC50).

Take `NCCc1c[nH]c2ccccc12` [TA, tryptamine]: at AHR [1], the EC50 came out at 13.8 µM and the “efficacy class of AHR agonist based” value is listed as “medium”. Further, the “AHR agonist efficacy class” value in the series with AHR [2] is listed as “medium efficacy”.

The molecule `C=C1CC[C@H](O)C/C1=C/C=C1\CCC[C@]2(C)[C@@H]([C@H](C)CCCC(C)C)CC[C@@H]12` [VD3, cholecalciferol] registered a fold induction at 0.075 µM on vitamin D receptor (VDR) of 65.

`C[C@@H]1C[C@H]2[C@@H]3CCC4=CC(=O)C=C[C@]4(C)[C@@]3(F)[C@@H](O)C[C@]2(C)[C@@]1(O)C(=O)CO` [DEX, dexamethasone]: in [6], the fold induction at 0.1 µM is 22.

`O=Cc1c[nH]c2ccccc12` [IA, Indole-3-aldehyde]: the midpoint of the response at AHR [1], the EC50, lay at 18.9 ± 3.9 µM. Also, the “efficacy class of AHR agonist based” value on AHR [1] (AZ-AHR cells, 4 h) is reported as “low”. Moreover, at AHR [1] (setting [8]), the “relative efficacy, %” value is recorded as “≈ 25%”. In the series with AHR [2], the “AHR agonist efficacy class” value was “no or low efficacy”.

`O=C(O)Cc1c[nH]c2ccccc12` [IAA, indole-3-acetate]: in the series on AHR [2], the “AHR agonist efficacy class” value was “no or low efficacy”.

At AHR [1], `OCCc1c[nH]c2ccccc12` [IET, indole-3-ethanol] showed an EC50 of 29.3 ± 8.2 µM. The “efficacy class of AHR agonist based” value on AHR [1] (AZ-AHR cells, 4 h) was “medium”. Further, the “AHR agonist efficacy class” value in the series on AHR [2] was “medium efficacy”.

As to `O=C(O)CCc1c[nH]c2ccccc12` [IPA, indole-3-propionate], on AHR [1], the “efficacy class of AHR agonist based” value was “low” and the “relative efficacy, %” value is listed as “≈ 25%”. Further, the “AHR agonist efficacy class” value in the series on AHR [2] was “no or low efficacy”. Moreover, at AHR [5], the EC50 was 48.1 ± 15.2 µM.

`CCCCC/C=C/C=C1/C(=O)C=C[C@@H]1C/C=C\CCCC(=O)O` [15d-PGDJ, 15-Deoxy-δ12,14-Prostaglandin J2] had a fold induction in series [7] of 3 fold.

Turning to `O=C(O)C(=O)Cc1c[nH]c2ccccc12` [IPY, indole-3-pyruvate], the “efficacy class of AHR agonist based” value at AHR [1] (AZ-AHR cells, 4 h) is listed as “high”. Also, the “relative efficacy, %” value on AHR [1] (setting [8]) turned out to be 77%. The “AHR agonist efficacy class” value in the series with AHR [2] is recorded as “high-efficacy”. Further, the EC50 on AHR [5] stood at 24.4 ± 12 µM.

On to `Cc1c[nH]c2ccccc12` [3MI, 3-methylindole], for which a half-maximal effect on AHR [1] (EC50) was put at 8.4 µM. Besides, the “efficacy class of AHR agonist based” value on AHR [1] (AZ-AHR cells, 4 h) is listed as “medium”. Besides, in the series with AHR [2], the “AHR agonist efficacy class” value was “medium efficacy”.

Values taken from article PMC9505659, “Mixture Effects of Tryptophan Intestinal Microbial Metabolites on Aryl Hydrocarbon Receptor Activity” (International Journal of Molecular Sciences, 2022).
